Assay results: US9765083B2, “Method for the synthesis of irinotecan” (Synbias Pharma AG, priority 2013, dated 2017)

Assay: solubility of 7-des-ethyl-irinotecan compared with camptothecin and 10-hydroxycamptothecin
Format: physicochemical
Conditions: as compared to camptothecin and 10-hydroxycamptothecin; solvent not stated

Q: With `CC[C@@]1(O)C(=O)OCc2c1cc1n(c2=O)Cc2cc3cc(OC(=O)N4CCC(N5CCCCC5)CC4)ccc3nc2-1` [7-des-ethyl-irinotecan, 10-[4-(1-piperidino)-1-piperidino]carbonyloxycamptothecin] as the compound, how does the solubility read?
A: The solubility was “significantly better solubility”.
